Results taken from patent US10617693B2, “Methods of treating and/or preventing actinic keratosis” (Athenex, Inc., priority 2017, dated 2020).

System: subjects with AK on the dorsal forearm
Assay: Phase 1 study KX01-AK-01-US: local skin reactions (investigator score 0 none to 4 severe; subject score 0 none to 3 severe) and adverse events
[1] = Cohort 1: 0.5 mg/25 cm^2 QD x3 days, N=4
[2] = Cohort 2: 2 mg/100 cm^2 QD x3 days, N=10
[3] = Cohort 3: 0.5 mg/25 cm^2 QD x5 days, N=8
[4] = Cohort 4: 2 mg/100 cm^2 QD x5 days, N=8

Description: A Phase 1, single-center, safety, tolerability and pharmacokinetic study of KX-01 was performed on subjects with AK on the dorsal forearm. This was an open-label, uncontrolled, nonrandomized, sequential group clinical trial conducted at a single investigational center in the United States. The primary objectives of the study were to assess the safety, tolerability and pharmacokinetics of KX-01 in subjects with AK. The secondary objective was to evaluate the activity of KX-01 administered topically to the dorsal forearm in subjects with AK.
KX-01 was administered topically on treatment days. All subjects were monitored for safety and tolerability that included LSRs, AEs, vital signs, clinical laboratory tests, ECGs, and physical examinations at baseline and at pre-defined time points during treatment and follow-up on days 1, 2, 3, 4, 5, 8, 10, 17, 31 and 45.
LSRs (erythema, flaking/scaling, crusting, swelling, vesiculation/pustulation, erosion/ulceration) were assessed by the investigator or trained designee using a 4-point scale according to the protocol. The subject's assessment of the symptoms (stinging/burning, pruritus) associated with irritation of the treatment area was evaluated on a 4-point scale (0=none, 1=mild, 2=moderate, 3=severe). Subjects were queried for spontaneously reported AEs at each study visit before assessment of LSRs. LSRs and AEs were reported separately. All LSRs were to be followed to resolution or stabilization.

Compound: O=C(Cc1ccc(-c2ccc(OCCN3CCOCC3)cc2)cn1)NCc1ccccc1 [KX-01]
- Day LSRs tended to peak (3-day treatment cohorts (Cohorts 1 and 2)): ~5 days
- Day LSRs tended to peak (5-day treatment cohorts (Cohorts 3 and 4)): ~10 days
- Burning (subject-assessed) max score 0, number of subjects [1]: 4
- Burning (subject-assessed) max score 1, number of subjects [1]: 0
- Burning (subject-assessed) max score 2, number of subjects [1]: 0
- Burning (subject-assessed) max score 3, number of subjects [1]: 0
- Crusting max score 0, number of subjects [1]: 4
- Crusting max score 1, number of subjects [1]: 0
- Crusting max score 2, number of subjects [1]: 0
- Crusting max score 3, number of subjects [1]: 0
- Crusting max score 4, number of subjects [1]: 0
- Erosions/ulcers max score 0, number of subjects [1]: 4
- Erosions/ulcers max score 1, number of subjects [1]: 0
- Erosions/ulcers max score 2, number of subjects [1]: 0
- Erosions/ulcers max score 3, number of subjects [1]: 0
- Erosions/ulcers max score 4, number of subjects [1]: 0
- Erythema max score 0, number of subjects [1]: 0
- Erythema max score 1, number of subjects [1]: 2
- Erythema max score 2, number of subjects [1]: 1
- Erythema max score 3, number of subjects [1]: 1
- Erythema max score 4, number of subjects [1]: 0
- Flaking/scaling max score 0, number of subjects [1]: 0
- Flaking/scaling max score 1, number of subjects [1]: 3
- Flaking/scaling max score 2, number of subjects [1]: 0
- Flaking/scaling max score 3, number of subjects [1]: 1
- Flaking/scaling max score 4, number of subjects [1]: 0
- Pruritus (subject-assessed) max score 0, number of subjects [1]: 3
- Pruritus (subject-assessed) max score 1, number of subjects [1]: 1
- Pruritus (subject-assessed) max score 2, number of subjects [1]: 0
- Pruritus (subject-assessed) max score 3, number of subjects [1]: 0
- Stinging (subject-assessed) max score 0, number of subjects [1]: 3
- Stinging (subject-assessed) max score 1, number of subjects [1]: 1
- Stinging (subject-assessed) max score 2, number of subjects [1]: 0
- Stinging (subject-assessed) max score 3, number of subjects [1]: 0
- Swelling max score 0, number of subjects [1]: 4
- Swelling max score 1, number of subjects [1]: 0
- Swelling max score 2, number of subjects [1]: 0
- Swelling max score 3, number of subjects [1]: 0
- Swelling max score 4, number of subjects [1]: 0
- Vesicles/pustules max score 0, number of subjects [1]: 4
- Vesicles/pustules max score 1, number of subjects [1]: 0
- Vesicles/pustules max score 2, number of subjects [1]: 0
- Vesicles/pustules max score 3, number of subjects [1]: 0
- Vesicles/pustules max score 4, number of subjects [1]: 0
- Burning (subject-assessed) max score 0, number of subjects [2]: 6
- Burning (subject-assessed) max score 1, number of subjects [2]: 3
- Burning (subject-assessed) max score 2, number of subjects [2]: 1
- Burning (subject-assessed) max score 3, number of subjects [2]: 0
- Crusting max score 0, number of subjects [2]: 5
- Crusting max score 1, number of subjects [2]: 5
- Crusting max score 2, number of subjects [2]: 0
- Crusting max score 3, number of subjects [2]: 0
- Crusting max score 4, number of subjects [2]: 0
- Erosions/ulcers max score 0, number of subjects [2]: 10
- Erosions/ulcers max score 1, number of subjects [2]: 0
- Erosions/ulcers max score 2, number of subjects [2]: 0
- Erosions/ulcers max score 3, number of subjects [2]: 0
- Erosions/ulcers max score 4, number of subjects [2]: 0
- Erythema max score 0, number of subjects [2]: 0
- Erythema max score 1, number of subjects [2]: 6
- Erythema max score 2, number of subjects [2]: 2
- Erythema max score 3, number of subjects [2]: 2
- Erythema max score 4, number of subjects [2]: 0
- Flaking/scaling max score 0, number of subjects [2]: 1
- Flaking/scaling max score 1, number of subjects [2]: 2
- Flaking/scaling max score 2, number of subjects [2]: 1
- Flaking/scaling max score 3, number of subjects [2]: 6
- Flaking/scaling max score 4, number of subjects [2]: 0
- Pruritus (subject-assessed) max score 0, number of subjects [2]: 4
- Pruritus (subject-assessed) max score 1, number of subjects [2]: 6
- Pruritus (subject-assessed) max score 2, number of subjects [2]: 0
- Pruritus (subject-assessed) max score 3, number of subjects [2]: 0
- Stinging (subject-assessed) max score 0, number of subjects [2]: 8
- Stinging (subject-assessed) max score 1, number of subjects [2]: 2
- Stinging (subject-assessed) max score 2, number of subjects [2]: 0
- Stinging (subject-assessed) max score 3, number of subjects [2]: 0
- Swelling max score 0, number of subjects [2]: 8
- Swelling max score 1, number of subjects [2]: 2
- Swelling max score 2, number of subjects [2]: 0
- Swelling max score 3, number of subjects [2]: 0
- Swelling max score 4, number of subjects [2]: 0
- Vesicles/pustules max score 0, number of subjects [2]: 10
- Vesicles/pustules max score 1, number of subjects [2]: 0
- Vesicles/pustules max score 2, number of subjects [2]: 0
- Vesicles/pustules max score 3, number of subjects [2]: 0
- Vesicles/pustules max score 4, number of subjects [2]: 0
- Burning (subject-assessed) max score 0, number of subjects [3]: 4
- Burning (subject-assessed) max score 1, number of subjects [3]: 3
- Burning (subject-assessed) max score 2, number of subjects [3]: 1
- Burning (subject-assessed) max score 3, number of subjects [3]: 0
- Crusting max score 0, number of subjects [3]: 1
- Crusting max score 1, number of subjects [3]: 7
- Crusting max score 2, number of subjects [3]: 0
- Crusting max score 3, number of subjects [3]: 0
- Crusting max score 4, number of subjects [3]: 0
- Erosions/ulcers max score 0, number of subjects [3]: 8
- Erosions/ulcers max score 1, number of subjects [3]: 0
- Erosions/ulcers max score 2, number of subjects [3]: 0
- Erosions/ulcers max score 3, number of subjects [3]: 0
- Erosions/ulcers max score 4, number of subjects [3]: 0
- Erythema max score 0, number of subjects [3]: 0
- Erythema max score 1, number of subjects [3]: 2
- Erythema max score 2, number of subjects [3]: 4
- Erythema max score 3, number of subjects [3]: 2
- Erythema max score 4, number of subjects [3]: 0
- Flaking/scaling max score 0, number of subjects [3]: 0
- Flaking/scaling max score 1, number of subjects [3]: 2
- Flaking/scaling max score 2, number of subjects [3]: 2
- Flaking/scaling max score 3, number of subjects [3]: 4
- Flaking/scaling max score 4, number of subjects [3]: 0
- Pruritus (subject-assessed) max score 0, number of subjects [3]: 2
- Pruritus (subject-assessed) max score 1, number of subjects [3]: 4
- Pruritus (subject-assessed) max score 2, number of subjects [3]: 1
- Pruritus (subject-assessed) max score 3, number of subjects [3]: 1
- Stinging (subject-assessed) max score 0, number of subjects [3]: 6
- Stinging (subject-assessed) max score 1, number of subjects [3]: 1
- Stinging (subject-assessed) max score 2, number of subjects [3]: 1
- Stinging (subject-assessed) max score 3, number of subjects [3]: 0
- Swelling max score 0, number of subjects [3]: 4
- Swelling max score 1, number of subjects [3]: 1
- Swelling max score 2, number of subjects [3]: 0
- Swelling max score 3, number of subjects [3]: 3
- Swelling max score 4, number of subjects [3]: 0
- Vesicles/pustules max score 0, number of subjects [3]: 8
- Vesicles/pustules max score 1, number of subjects [3]: 0
- Vesicles/pustules max score 2, number of subjects [3]: 0
- Vesicles/pustules max score 3, number of subjects [3]: 0
- Vesicles/pustules max score 4, number of subjects [3]: 0
- Burning (subject-assessed) max score 0, number of subjects [4]: 4
- Burning (subject-assessed) max score 1, number of subjects [4]: 4
- Burning (subject-assessed) max score 2, number of subjects [4]: 0
- Burning (subject-assessed) max score 3, number of subjects [4]: 0
- Crusting max score 0, number of subjects [4]: 4
- Crusting max score 1, number of subjects [4]: 4
- Crusting max score 2, number of subjects [4]: 0
- Crusting max score 3, number of subjects [4]: 0
- Crusting max score 4, number of subjects [4]: 0
- Erosions/ulcers max score 0, number of subjects [4]: 7
- Erosions/ulcers max score 1, number of subjects [4]: 1
- Erosions/ulcers max score 2, number of subjects [4]: 0
- Erosions/ulcers max score 3, number of subjects [4]: 0
- Erosions/ulcers max score 4, number of subjects [4]: 0
- Erythema max score 0, number of subjects [4]: 0
- Erythema max score 1, number of subjects [4]: 2
- Erythema max score 2, number of subjects [4]: 4
- Erythema max score 3, number of subjects [4]: 2
- Erythema max score 4, number of subjects [4]: 0
- Flaking/scaling max score 0, number of subjects [4]: 0
- Flaking/scaling max score 1, number of subjects [4]: 2
- Flaking/scaling max score 2, number of subjects [4]: 4
- Flaking/scaling max score 3, number of subjects [4]: 2
- Flaking/scaling max score 4, number of subjects [4]: 0
- Pruritus (subject-assessed) max score 0, number of subjects [4]: 0
- Pruritus (subject-assessed) max score 1, number of subjects [4]: 4
- Pruritus (subject-assessed) max score 2, number of subjects [4]: 4
- Pruritus (subject-assessed) max score 3, number of subjects [4]: 0
- Stinging (subject-assessed) max score 0, number of subjects [4]: 5
- Stinging (subject-assessed) max score 1, number of subjects [4]: 3
- Stinging (subject-assessed) max score 2, number of subjects [4]: 0
- Stinging (subject-assessed) max score 3, number of subjects [4]: 0
- Swelling max score 0, number of subjects [4]: 1
- Swelling max score 1, number of subjects [4]: 6
- Swelling max score 2, number of subjects [4]: 1
- Swelling max score 3, number of subjects [4]: 0
- Swelling max score 4, number of subjects [4]: 0
- Vesicles/pustules max score 0, number of subjects [4]: 8
- Vesicles/pustules max score 1, number of subjects [4]: 0
- Vesicles/pustules max score 2, number of subjects [4]: 0
- Vesicles/pustules max score 3, number of subjects [4]: 0
- Vesicles/pustules max score 4, number of subjects [4]: 0
- Severity of TEAEs (all TEAEs): mild to moderate
- Local tolerability (all cohorts): acceptable
- Number of TEAEs (all cohorts): 10
- Subjects reporting treatment emergent adverse events (TEAEs) (all cohorts): Four of 30
- Subjects with a vesicle or pustule (all cohorts): No subject
- Subjects with an LSR score of 4 in any category (all cohorts): No subject
- Subjects with LSRs as assessed by the Investigator (all cohorts, 30 subjects): 30
- Day by which application-site symptoms resolved (human, in vivo): ≤ 45 days
- Nature of local skin reactions (human, in vivo): primarily mild
- Day LSRs appeared (in general): 2 days
- Subjects with erythema and/or flaking/scaling score 1 or 2 at day 45 (of 30 subjects): Fifteen
